Measured values taken from patent publication US20230271950A1, “ANTIBACTERIAL PICOLINAMIDE COMPOUNDS” (University of Notre Dame Du Lac, priority 2020, published 2023).
Values after ≈ are worked out from the molar mass of the structure shown. Read-outs that look alike come from different tables or passages of the source.

What was measured:
C. difficile = assay: MIC by broth microdilution against C. difficile strains; assay type: cell-based, Clostridioides difficile; conditions: for MIC: Clostridioides difficile; for Selectivity: MIC MRSA/MIC C. difficile, Table 3; for MIC C. difficile: ATCC 43255, ribotype 087
MRSA (NRS70, NRS119) = assay: MIC against MRSA strains; assay type: cell-based, Staphylococcus aureus; conditions: for MIC: Staphylococcus aureus
S. aureus ATCC29213 = assay: MIC against MSSA; assay type: cell-based, Staphylococcus aureus; conditions: MSSA ATCC 29213; for MIC: Staphylococcus aureus, Table 10, unit inferred, read-out: Activity (MIC) against S. aureus
E. faecium NCTC7171 = assay: MIC against E. faecium; assay type: cell-based, Enterococcus faecium; conditions: E. faecium NCTC 7171; for MIC: Enterococcus faecium, NCTC7171, Table 10, unit inferred, read-out: Activity (MIC) against E. faecium
[1] = ATCC43255, ATCC 43255, ribotype 087, Table 3 (SAR^2 and SAR^3), read-out: MIC C. difficile
[2] = NRS70 strain, Table 3 (SAR^2 and SAR^3), read-out: MIC MRSA
[3] = ATCC43255, ATCC 43255, ribotype 087, Table 2 (SAR^1), read-out: MIC C. difficile
[4] = NRS70 strain, Table 2 (SAR^1), read-out: MIC MRSA
[5] = ATCC43255, C. difficile ATCC 43255, read-out: MIC against C. difficile
[6] = MRSA strain NRS70, read-out: MIC against MRSA

MIC (C. difficile; [1])	MIC (MRSA (NRS70, NRS119); [2])	MIC (S. aureus ATCC29213)	MIC (E. faecium NCTC7171)	SMILES	Selectivity (C. difficile)	other results
0.25 µg/mL (≈ 0.716 µM)	0.0625 µg/mL (≈ 0.179 µM)	0.25 µg/mL (≈ 0.716 µM)	1 µg/mL (≈ 2.86 µM)	O=C(Nc1ncco1)c1ccnc(-c2cccc(OC(F)(F)F)c2)c1 [Compound 47, N-(Oxazol-2-yl)-2-(3-(trifluoromethoxy)phenyl)isonicotinamide]	0.25	
		1 µg/mL (≈ 3.17 µM)	2 µg/mL (≈ 6.33 µM)	O=C(Nc1ncco1)c1ccnc(Oc2cccc(Cl)c2)c1 [Compound 100, 2-(3-Chlorophenoxy)-N-(oxazol-2-yl)isonicotinamide]		
0.125 µg/mL (≈ 0.358 µM)	1 µg/mL (≈ 2.86 µM)	0.5 µg/mL (≈ 1.43 µM)	2 µg/mL (≈ 5.73 µM)	O=C(Nc1ncco1)c1ccnc(-c2ccc(OC(F)(F)F)cc2)c1 [Compound 46, N-(Oxazol-2-yl)-2-(4-(trifluoromethoxy)phenyl)isonicotinamide]	8	
		1 µg/mL (≈ 2.86 µM)	1 µg/mL (≈ 2.86 µM)	O=C(Nc1ncco1)c1ccnc(Oc2cccc(C(F)(F)F)c2)c1 [Compound 103, N-(Oxazol-2-yl)-2-(3-(trifluoromethyl)phenoxy)isonicotinamide]		
		1 µg/mL (≈ 2.74 µM)	16 µg/mL (≈ 43.8 µM)	O=C(Nc1ncco1)c1ccnc(Oc2ccc(OC(F)(F)F)cc2)c1 [Compound 104, N-(Oxazol-2-yl)-2-(4-(trifluoromethoxy)phenoxy)isonicotinamide]		
1 µg/mL (≈ 3.32 µM)	2 µg/mL (≈ 6.64 µM)	4 µg/mL (≈ 13.3 µM)	1 µg/mL (≈ 3.32 µM)	O=C(Nc1ncco1)c1ccnc(-c2ccc(F)c(F)c2)c1 [Compound 35, 2-(3,4-Difluorophenyl)-N-(oxazol-2-yl)isonicotinamide]	2	
		1 µg/mL (≈ 3 µM)	2 µg/mL (≈ 5.99 µM)	O=C(Nc1ncco1)c1ccnc(Oc2ccc(F)c(Cl)c2)c1 [Compound 101, 2-(3-Chloro-4-fluorophenoxy)-N-(oxazol-2-yl)isonicotinamide]		
		16 µg/mL (≈ 41.6 µM)	16 µg/mL (≈ 41.6 µM)	O=C(Nc1nc2ccccc2o1)c1ccnc(-c2ccc(Cl)c(Cl)c2)c1 [Compound 21, N-(benzo[d]oxazol-2-yl)-2-(3,4-dichlorophenyl)isonicotinamide]		MIC (C. difficile; [3]): 1 µg/mL (≈ 2.6 µM); MIC (MRSA (NRS70, NRS119); [4]): 1 µg/mL (≈ 2.6 µM)
0.0625 µg/mL (≈ 0.187 µM)	0.0625 µg/mL (≈ 0.187 µM)	0.06 µg/mL (≈ 0.18 µM)	0.06 µg/mL (≈ 0.18 µM)	O=C(Nc1ncco1)c1ccnc(-c2cc(Cl)cc(Cl)c2)c1 [Compound 41, 2-(3,5-Dichlorophenyl)-N-(oxazol-2-yl)isonicotinamide]	1	
0.125 µg/mL (≈ 0.355 µM)	0.0625 µg/mL (≈ 0.177 µM)	0.25 µg/mL (≈ 0.71 µM)	0.5 µg/mL (≈ 1.42 µM)	O=C(Nc1ncco1)c1cc(-c2ccc(Cl)c(Cl)c2)ncc1F [Compound 70, 2-(3,4-Dichlorophenyl)-5-fluoro-N-(oxazol-2-yl)isonicotinamide]	0.5	
0.5 µg/mL (≈ 1.67 µM)	1 µg/mL (≈ 3.34 µM)	1 µg/mL (≈ 3.34 µM)	2 µg/mL (≈ 6.67 µM)	O=C(Nc1ncco1)c1ccnc(-c2ccc(Cl)cc2)c1 [Compound 32, 2-(4-Chlorophenyl)-N-(oxazol-2-yl)isonicotinamide]	2	
				CN(C)C(=O)c1cnc(NC(=O)c2ccnc(-c3ccc(Cl)c(Cl)c3)c2)o1 [Compound 28, (2-(3,4-Dichlorophenyl)isonicotinamido)-N,N-dimethyloxazole-5-carboxamide]		MIC C. difficile (C. difficile; Table 2 (SAR^1)): 0.5 µg/mL (≈ 1.23 µM); MIC MRSA (MRSA (NRS70, NRS119); NRS70 strain, Table 2 (SAR^1)): 4 µg/mL (≈ 9.87 µM); Activity (MIC) against S. aureus (S. aureus ATCC29213; Table 10, unit not given): 2; Activity (MIC) against E. faecium (E. faecium NCTC7171; Table 10, unit not given): 8
		32 µg/mL (≈ 63.3 µM)	128 µg/mL (≈ 253 µM)	C#CCCCCCOC(=O)c1ccc2oc(NC(=O)c3cc(Oc4ccc(F)c(F)c4)ccn3)nc2c1 [Compound 117, Hept-6-yn-1-yl 2-(4-(3,4-difluorophenoxy)picolinamido)benzo[d]oxazole-5-carboxylate]		
2 µg/mL (≈ 6.26 µM)	4 µg/mL (≈ 12.5 µM)			O=C(Nc1ncco1)c1ccnc(-c2ccc(F)c(F)c2)c1F [Compound 68, 2-(3,4-Difluorophenyl)-3-fluoro-N-(oxazol-2-yl)isonicotinamide]	2	
4 µg/mL (≈ 13.5 µM)	8 µg/mL (≈ 27.1 µM)			COc1ccc(-c2cc(C(=O)Nc3ncco3)ccn2)cc1 [Compound 51, 2-(4-Methoxyphenyl)-N-(oxazol-2-yl)isonicotinamide]	2	
				O=C(Nc1nccs1)c1ccnc(-c2ccc(Cl)c(Cl)c2)c1 [Compound 16, 2-(3,4-Dichlorophenyl)-N-(thiazol-2-yl)isonicotinamide]		MIC (C. difficile; [3]): ≥ 128 µg/mL; MIC (C. difficile; [5]): ≥ 64 µg/mL; MIC (MRSA (NRS70, NRS119); [6]): ≥ 64 µg/mL; MIC (MRSA (NRS70, NRS119); [4]): ≥ 256 µg/mL
1 µg/mL (≈ 3.22 µM)	64 µg/mL (≈ 206 µM)			O=C(Nc1ncco1)c1ccnc(-c2ccc([N+](=O)[O-])cc2)c1 [Compound 49, 2-(4-Nitrophenyl)-N-(oxazol-2-yl)isonicotinamide]	64	
4 µg/mL (≈ 13.3 µM)	8 µg/mL (≈ 26.7 µM)			O=C(Nc1ncco1)c1ccnc(-c2ccccc2Cl)c1 [Compound 34, 2-(2-Chlorophenyl)-N-(oxazol-2-yl)isonicotinamide]	2	

MIC (C. difficile; [1])	MIC (MRSA (NRS70, NRS119); [2])	MIC (S. aureus ATCC29213)	MIC (E. faecium NCTC7171)	SMILES	Selectivity (C. difficile)	other results
				Cc1nnc(NC(=O)c2ccnc(-c3ccc(Cl)c(Cl)c3)c2)o1 [Compound 19, 2-(3,4-Dichlorophenyl)-N-(5-methyl-1,3,4-oxadiazol-2-yl)isonicotinamide]		MIC (C. difficile; [3]): 64 µg/mL (≈ 183 µM); MIC (C. difficile; [5]): ≥ 64 µg/mL; MIC (MRSA (NRS70, NRS119); [6]): ≥ 64 µg/mL; MIC (MRSA (NRS70, NRS119); [4]): ≥ 256 µg/mL
0.5 µg/mL (≈ 1.43 µM)	≥ 256 µg/mL			O=C(Nc1ncco1)c1cc(-c2cccc(OC(F)(F)F)c2)ccn1 [Compound 96, N-(Oxazol-2-yl)-4-(3-(trifluoromethoxy)phenyl)picolinamide]	≥512	
4 µg/mL (≈ 15.6 µM)	16 µg/mL (≈ 62.2 µM)			O=C(Nc1ncco1)c1ccnc(C(F)(F)F)c1 [Compound 63, N-(Oxazol-2-yl)-2-(trifluoromethyl)isonicotinamide]	4	
0.5 µg/mL (≈ 1.35 µM)	1 µg/mL (≈ 2.69 µM)			O=C(Nc1ncco1)c1ccnc(-c2cccc(OCc3ccccc3)c2)c1 [Compound 57, 2-(3-(Benzyloxy)phenyl)-N-(oxazol-2-yl)isonicotinamide]	2	
128 µg/mL (≈ 467 µM)	128 µg/mL (≈ 467 µM)			O=C(Nc1ncco1)c1ccnc(N2CCOCC2)c1 [Compound 62, 2-Morpholino-N-(oxazol-2-yl)isonicotinamide]	1	
		1 µg/mL (≈ 2.74 µM)	16 µg/mL (≈ 43.8 µM)	O=C(Nc1ncco1)c1ccnc(Oc2cccc(OC(F)(F)F)c2)c1 [Compound 105, N-(Oxazol-2-yl)-2-(3-(trifluoromethoxy)phenoxy)isonicotinamide]		
≥ 16 µg/mL	128 µg/mL (≈ 403 µM)			O=C(Nc1ncco1)c1cccc(-c2ccc(Cl)c(F)c2)n1 [Compound 78, 6-(4-Chloro-3-fluorophenyl)-N-(oxazol-2-yl)picolinamide]	≤ 8	
				CCOC(=O)c1coc(NC(=O)c2ccnc(-c3ccc(Cl)c(Cl)c3)c2)n1 [Compound 15, Ethyl 2-(2-(3,4-dichlorophenyl)isonicotinamido)oxazole-4-carboxylate]		MIC (C. difficile; [3]): 0.125 µg/mL (≈ 0.308 µM); MIC (MRSA (NRS70, NRS119); [4]): 1 µg/mL (≈ 2.46 µM)
				O=C(Nc1ncc(C(=O)O)o1)c1ccnc(-c2ccc(Cl)c(Cl)c2)c1 [Compound 24, 2-(2-(3,4-Dichlorophenyl)isonicotinamido)oxazole-5-carboxylic acid]		MIC (C. difficile; [3]): 128 µg/mL (≈ 338 µM); MIC (MRSA (NRS70, NRS119); [4]): 64 µg/mL (≈ 169 µM)
8 µg/mL (≈ 30.2 µM)	8 µg/mL (≈ 30.2 µM)			O=C(Nc1ncco1)c1ccnc(-c2ccccc2)c1 [Compound 60, N-(Oxazol-2-yl)-2-phenylisonicotinamide]	1	
				CC(C)(C)OC(=O)N1CCN(C(=O)c2cnc(NC(=O)c3ccnc(-c4ccc(Cl)c(Cl)c4)c3)o2)CC1 [Compound 30, Tert-butyl 4-(2-(2-(3,4-Dichlorophenyl)isonicotinamido)oxazole-5-carbonyl) piperazine-1-carboxylate]		MIC C. difficile (C. difficile; Table 2 (SAR^1)): 0.25 µg/mL (≈ 0.458 µM); MIC MRSA (MRSA (NRS70, NRS119); NRS70 strain, Table 2 (SAR^1)): 2 µg/mL (≈ 3.66 µM)
8 µg/mL (≈ 26.7 µM)	4 µg/mL (≈ 13.3 µM)			O=C(Nc1ncco1)c1cccc(-c2cccc(Cl)c2)n1 [Compound 76, 6-(3-Chlorophenyl)-N-(oxazol-2-yl)picolinamide]	0.5	
		1 µg/mL (≈ 3 µM)	2 µg/mL (≈ 5.99 µM)	O=C(Nc1ncco1)c1ccnc(Oc2ccc(Cl)c(F)c2)c1 [Compound 102, 2-(4-Chloro-3-fluorophenoxy)-N-(oxazol-2-yl)isonicotinamide]		
0.25 µg/mL (≈ 0.716 µM)	128 µg/mL (≈ 366 µM)			O=C(Nc1ncco1)c1cc(-c2ccc(OC(F)(F)F)cc2)ccn1 [Compound 95, N-(Oxazol-2-yl)-4-(4-(trifluoromethoxy)phenyl)picolinamide]	512	
4 µg/mL (≈ 13.3 µM)	128 µg/mL (≈ 427 µM)			O=C(Nc1ncco1)c1cc(-c2ccc(Cl)cc2)ccn1 [Compound 88, 4-(4-Chlorophenyl)-N-(oxazol-2-yl)picolinamide]	32	
4 µg/mL (≈ 10.8 µM)	8 µg/mL (≈ 21.5 µM)			O=C(Nc1ncco1)c1ccnc(-c2ccc(OCc3ccccc3)cc2)c1 [Compound 56, 2-(4-(Benzyloxy)phenyl)-N-(oxazol-2-yl)isonicotinamide]	2	
4 µg/mL (≈ 12.6 µM)	16 µg/mL (≈ 50.6 µM)			O=C(Nc1ncco1)c1ccnc(-c2cnc3ccccc3c2)c1 [Compound 61, N-(Oxazol-2-yl)-2-(quinolin-3-yl)isonicotinamide]	4	
